Consider one molecule from publication PMC11577813, “Eurasian spruce bark beetle detects lanierone using a highly expressed specialist odorant receptor, present in several functional sensillum types” (BMC Biology, 2024).

The target in the experiment is T1, ItypOR36 (with ItypOrco) (Ips typographus, UniProt A0AAU6S471).
T1 construct: gene OR36; heteromeric OR/Orco ligand-gated ion channel; GenBank id is for ItypOR36; with Odorant receptor coreceptor
T1 sequence (A0AAU6S471 1-390): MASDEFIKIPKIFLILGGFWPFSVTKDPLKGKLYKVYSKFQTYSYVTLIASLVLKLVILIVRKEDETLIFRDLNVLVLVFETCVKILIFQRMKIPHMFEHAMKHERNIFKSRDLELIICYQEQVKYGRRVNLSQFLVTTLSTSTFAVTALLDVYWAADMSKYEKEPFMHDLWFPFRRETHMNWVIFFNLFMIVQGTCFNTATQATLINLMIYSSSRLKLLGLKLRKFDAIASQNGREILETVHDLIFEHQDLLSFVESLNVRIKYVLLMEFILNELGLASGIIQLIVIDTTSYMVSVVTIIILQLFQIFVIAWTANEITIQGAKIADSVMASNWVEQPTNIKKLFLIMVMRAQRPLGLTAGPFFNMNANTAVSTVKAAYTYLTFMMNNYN
Description: Fluo4-AM calcium fluorescence in HEK293 cells, dose-response. Format: cell-based. Conditions: agonist; co-expressed ItypOrco; doxycycline-induced; DPBS with 1 mM probenecid, pH 7.1.

Turning to `CC1=CC(C)(C)C=C(O)C1=O` [lanierone, 2-hydroxy-4,4,6-trimethyl-2,5-cyclohexadien-l-one], the EC50 came out at 790 nM.

Usually EC50 stands for the concentration at which the effect is half-maximal.
